According to paper PMC5218480 (PLoS ONE, 2017):

System: MV-4-11 cells
Test: Gene expression microarray analysis (Affymetrix PrimeView) and GSEA
Type: cell-based, human
Parameters: RFU PODN (11730768_x_at) / Fold change /veh PODN (11730768_x_at) / RFU LINC00158 (11744669_a_at) / Fold change /veh LINC00158 (11744669_a_at) / RFU DUSP10 (11751237_a_at) / Fold change /veh DUSP10 (11751237_a_at) / RFU ID3 (11757404_x_at) / Fold change /veh ID3 (11757404_x_at) / RFU PLEKHG5 (11737974_s_at) / Fold change /veh PLEKHG5 (11737974_s_at) / RFU LRRC4B (11730491_at) / Fold change /veh LRRC4B (11730491_at) / RFU GIMAP4 (11747438_a_at) / Fold change /veh GIMAP4 (11747438_a_at) / RFU KRT8 (11758183_x_at) / Fold change /veh KRT8 (11758183_x_at) / RFU CNN1 (11734310_a_at) / Fold change /veh CNN1 (11734310_a_at) / RFU VPS37D (11726825_at) / Fold change /veh VPS37D (11726825_at) / RFU C10orf10 (11716522_x_at) / Fold change /veh C10orf10 (11716522_x_at) / RFU KIR2DL2 /// KIR2DL4 /// KIR2DL5A /// KIR2DL5B /// KIR2DS1 /// KIR2DS2 /// KIR2DS3 /// KIR2DS4 /// KIR3DL3 /// KIR3DL3 /// KIR3DS1 (11738374_at) / Fold change /veh KIR2DL2 /// KIR2DL4 /// KIR2DL5A /// KIR2DL5B /// KIR2DS1 /// KIR2DS2 /// KIR2DS3 /// KIR2DS4 /// KIR3DL3 /// KIR3DL3 /// KIR3DS1 (11738374_at) / RFU C1QL1 (11718748_at) / Fold change /veh C1QL1 (11718748_at) / RFU TMPRSS4 (11747572_a_at) / Fold change /veh TMPRSS4 (11747572_a_at) / RFU HAMP (11756126_x_at) / Fold change /veh HAMP (11756126_x_at) / RFU RNFT2 (11725882_a_at) / Fold change /veh RNFT2 (11725882_a_at) / RFU NR4A2 (11747474_a_at) / Fold change /veh NR4A2 (11747474_a_at) / RFU ABCC12 (11746883_a_at) / Fold change /veh ABCC12 (11746883_a_at) / RFU TMEM136 (11760407_x_at) / Fold change /veh TMEM136 (11760407_x_at) / RFU CLDN22 /// WWC2 (11732394_at) / Fold change /veh CLDN22 /// WWC2 (11732394_at) / RFU HLA-DPB1 (11760878_x_at) / Fold change /veh HLA-DPB1 (11760878_x_at) / RFU SPINT1 (11716480_a_at) / Fold change /veh SPINT1 (11716480_a_at) / RFU GAP43 (11754022_s_at) / Fold change /veh GAP43 (11754022_s_at) / RFU A4GNT (11735810_at) / Fold change /veh A4GNT (11735810_at) / RFU PRB3 (11715151_x_at) / Fold change /veh PRB3 (11715151_x_at) / RFU TUBB4B (11761932_at) / Fold change /veh TUBB4B (11761932_at) / RFU CAPN14 (11732068_a_at) / Fold change /veh CAPN14 (11732068_a_at) / RFU TMCC2 (11721928_a_at) / Fold change /veh TMCC2 (11721928_a_at) / RFU IRGQ (11745062_a_at) / Fold change /veh IRGQ (11745062_a_at) / RFU FAM174B (11720279_a_at) / Fold change /veh FAM174B (11720279_a_at) / RFU TMPRSS4 (11748680_a_at) / Fold change /veh TMPRSS4 (11748680_a_at) / RFU FAM212B (11763350_a_at) / Fold change /veh FAM212B (11763350_a_at) / RFU PLEKHG5 (11743358_a_at) / Fold change /veh PLEKHG5 (11743358_a_at) / RFU ZSCAN30 (11745921_a_at) / Fold change /veh ZSCAN30 (11745921_a_at) / RFU CMKLR1 (11741424_a_at) / Fold change /veh CMKLR1 (11741424_a_at) / RFU LOC101060620 /// MAPK8IP1 (11723275_at) / Fold change /veh LOC101060620 /// MAPK8IP1 (11723275_at) / RFU SPTSSB (11747773_x_at) / Fold change /veh SPTSSB (11747773_x_at) / RFU PRSS12 (11739890_at) / Fold change /veh PRSS12 (11739890_at) / RFU BIN1 (11741810_x_at) / Fold change /veh BIN1 (11741810_x_at) / RFU WNT11 (11732464_a_at) / Fold change /veh WNT11 (11732464_a_at) / RFU C10orf10 (11716521_a_at) / Fold change /veh C10orf10 (11716521_a_at) / RFU C5orf56 (11738089_at) / Fold change /veh C5orf56 (11738089_at) / RFU CYB561 (11721691_x_at) / Fold change /veh CYB561 (11721691_x_at) / RFU ANKRD19P (11752326_a_at) / Fold change /veh ANKRD19P (11752326_a_at) / RFU OR2T12 /// OR2T33 /// OR2T8 (11738714_s_at) / Fold change /veh OR2T12 /// OR2T33 /// OR2T8 (11738714_s_at) / RFU VCAN (11748164_a_at) / Fold change /veh VCAN (11748164_a_at) / RFU JSRP1 (11732532_at) / Fold change /veh JSRP1 (11732532_at) / RFU KRTAP10-11 (11738290_x_at) / Fold change /veh KRTAP10-11 (11738290_x_at) / RFU MYO3A (11730013_a_at) / Fold change /veh MYO3A (11730013_a_at) / RFU EBF3 (11725865_a_at) / Fold change /veh EBF3 (11725865_a_at) / RFU CAMK2N1 (11719241_x_at) / Fold change /veh CAMK2N1 (11719241_x_at) / RFU C5orf56 (11738088_a_at) / Fold change /veh C5orf56 (11738088_a_at) / RFU OLFML3 (11715873_a_at) / Fold change /veh OLFML3 (11715873_a_at) / RFU LOC100653217 /// NTM (11731650_a_at) / Fold change /veh LOC100653217 /// NTM (11731650_a_at) / RFU MAPK11 (11762145_a_at) / Fold change /veh MAPK11 (11762145_a_at) / RFU FIZ1 (11724087_x_at) / Fold change /veh FIZ1 (11724087_x_at) / RFU OASL (11726364_x_at) / Fold change /veh OASL (11726364_x_at) / RFU SOX15 (11748057_x_at) / Fold change /veh SOX15 (11748057_x_at) / RFU CD79A (11719716_a_at) / Fold change /veh CD79A (11719716_a_at) / RFU HIST1H1D (11736915_at) / Fold change /veh HIST1H1D (11736915_at) / RFU CASKIN2 (11723855_a_at) / Fold change /veh CASKIN2 (11723855_a_at) / RFU LOC730098 (11760151_x_at) / Fold change /veh LOC730098 (11760151_x_at) / RFU OR4N2 (11742367_at) / Fold change /veh OR4N2 (11742367_at) / RFU PRRT2 (11749266_a_at) / Fold change /veh PRRT2 (11749266_a_at) / RFU SNX32 (11753110_a_at) / Fold change /veh SNX32 (11753110_a_at) / RFU CDHR5 (11726645_a_at) / Fold change /veh CDHR5 (11726645_a_at) / RFU RCAN1 (11760418_a_at) / Fold change /veh RCAN1 (11760418_a_at) / RFU FAM167A (11723789_a_at) / Fold change /veh FAM167A (11723789_a_at) / RFU FAM26E (11764081_at) / Fold change /veh FAM26E (11764081_at) / RFU ISYNA1 (11749810_s_at) / Fold change /veh ISYNA1 (11749810_s_at) / RFU ACY1 (11761880_at) / Fold change /veh ACY1 (11761880_at) / RFU 11764098_at / Fold change /veh 11764098_at / RFU SAMD14 (11745864_x_at) / Fold change /veh SAMD14 (11745864_x_at) / RFU NPB (11741838_a_at) / Fold change /veh NPB (11741838_a_at) / RFU TMPRSS6 (11731388_a_at) / Fold change /veh TMPRSS6 (11731388_a_at) / RFU KRTAP10-2 (11738614_at) / Fold change /veh KRTAP10-2 (11738614_at) / RFU ARHGAP8 /// PRR5-ARHGAP8 (11727945_x_at) / Fold change /veh ARHGAP8 /// PRR5-ARHGAP8 (11727945_x_at) / RFU KRTAP5-7 /// NADSYN1 (11734609_at) / Fold change /veh KRTAP5-7 /// NADSYN1 (11734609_at) / RFU RASL12 (11751679_a_at) / Fold change /veh RASL12 (11751679_a_at) / RFU CDKN2B (11736163_a_at) / Fold change /veh CDKN2B (11736163_a_at) / RFU PRF1 (11729649_at) / Fold change /veh PRF1 (11729649_at) / RFU, ZNF638 /// ZNF638-IT1 / Fold change vs veh, ZNF638 /// ZNF638-IT1 / RFU, PANK3 / Fold change vs veh, PANK3 / RFU, SH3YL1 / Fold change vs veh, SH3YL1 / RFU, ZEB2 / Fold change vs veh, ZEB2 / RFU, NRIP1 / Fold change vs veh, NRIP1 / RFU, PTTG1IP / Fold change vs veh, PTTG1IP / RFU, CAPN2 / Fold change vs veh, CAPN2 / RFU, MED14 / Fold change vs veh, MED14 / RFU, SNORA58 / Fold change vs veh, SNORA58 / RFU, C1orf63 / Fold change vs veh, C1orf63 / RFU, LRRFIP1 / Fold change vs veh, LRRFIP1 / RFU, NDUFAF7 / Fold change vs veh, NDUFAF7 / RFU, SLC12A2 / Fold change vs veh, SLC12A2 / RFU, IBTK / Fold change vs veh, IBTK / RFU, ESF1 / Fold change vs veh, ESF1 / Fold change vs veh, TMEM50B / RFU, TAOK1 / Fold change vs veh, TAOK1 / RFU, ACBD3 / Fold change vs veh, ACBD3 / RFU, TMA16 / Fold change vs veh, TMA16 / RFU, RWDD3 / Fold change vs veh, RWDD3 / RFU, BCAT1 / Fold change vs veh, BCAT1 / RFU, EDEM3 / Fold change vs veh, EDEM3 / RFU, TMEM33 / Fold change vs veh, TMEM33 / RFU, WDR75 / Fold change vs veh, WDR75 / RFU, AHCTF1 / Fold change vs veh, AHCTF1 / RFU, TFRC / Fold change vs veh, TFRC / RFU, ZDHHC17 / Fold change vs veh, ZDHHC17 / RFU, NOM1 / Fold change vs veh, NOM1 / RFU, ARL8B / Fold change vs veh, ARL8B / RFU, ZBTB11 / Fold change vs veh, ZBTB11 / RFU, TAMM41 / Fold change vs veh, TAMM41 / RFU, KIAA1704 /// LOC100996395 / Fold change vs veh, KIAA1704 /// LOC100996395 / RFU, ING1 / Fold change vs veh, ING1 / RFU, TRMT61B / Fold change vs veh, TRMT61B / RFU, FUBP3 / Fold change vs veh, FUBP3 / RFU, TP53 / Fold change vs veh, TP53 / RFU, TNKS2 / Fold change vs veh, TNKS2 / RFU, ZFP14 / Fold change vs veh, ZFP14 / RFU, ACTR2 / Fold change vs veh, ACTR2 / RFU, PPP3R1 / Fold change vs veh, PPP3R1 / RFU, PIK3R1 / Fold change vs veh, PIK3R1 / RFU, HNRNPA1 / Fold change vs veh, HNRNPA1 / RFU, RNF170 / Fold change vs veh, RNF170 / RFU, ZNF28 / Fold change vs veh, ZNF28 / RFU, RNGTT / Fold change vs veh, RNGTT / RFU, OGT / Fold change vs veh, OGT / RFU, BRD1 / Fold change vs veh, BRD1 / RFU, MARS / Fold change vs veh, MARS / RFU, ZNF655 / Fold change vs veh, ZNF655 / RFU, FAHD1 / Fold change vs veh, FAHD1 / RFU, BDP1 / Fold change vs veh, BDP1 / RFU, LRRCC1 / Fold change vs veh, LRRCC1 / RFU, ARID1A / Fold change vs veh, ARID1A / RFU, ZNF146 / Fold change vs veh, ZNF146 / RFU, ZNF330 / Fold change vs veh, ZNF330 / RFU, GPN3 / Fold change vs veh, GPN3 / RFU, C9orf123 / Fold change vs veh, C9orf123 / RFU, N4BP2L2 / Fold change vs veh, N4BP2L2 / RFU, ARFIP1 / Fold change vs veh, ARFIP1 / RFU, FAM179B / Fold change vs veh, FAM179B / RFU, BCL10 / Fold change vs veh, BCL10 / RFU, UHRF1BP1L / Fold change vs veh, UHRF1BP1L / RFU, BET1 / Fold change vs veh, BET1 / RFU, CNOT2 / Fold change vs veh, CNOT2 / RFU, ZNF268 / Fold change vs veh, ZNF268 / Fold change vs veh, ZNF507 / RFU, DGCR2 / Fold change vs veh, DGCR2 / RFU, WDSUB1 / Fold change vs veh, WDSUB1 / Fold change vs veh, HSP90B1 /// MIR3652 / RFU, ADSS / Fold change vs veh, ADSS / RFU, GK / Fold change vs veh, GK / RFU, ZNF148 / Fold change vs veh, ZNF148 / RFU, TAF9 / Fold change vs veh, TAF9 / RFU, SLC1A5 / Fold change vs veh, SLC1A5 / RFU, SLMO2 / Fold change vs veh, SLMO2 / RFU, ABCC4 / Fold change vs veh, ABCC4 / RFU, LOC101060439 /// RAP1B / Fold change vs veh, LOC101060439 /// RAP1B / RFU, RFX7 / Fold change vs veh, RFX7 / RFU, GTPBP10 / Fold change vs veh, GTPBP10 / RFU, CNEP1R1 / Fold change vs veh, CNEP1R1 / RFU, BIVM-ERCC5 /// ERCC5 / Fold change vs veh, BIVM-ERCC5 /// ERCC5 / RFU, ILF3 / Fold change vs veh, ILF3 / RFU 11762660_at / Fold change /veh 11762660_at / RFU VCAN (11757783_s_at) / Fold change /veh VCAN (11757783_s_at) / RFU DDX43 (11728927_at) / Fold change /veh DDX43 (11728927_at) / RFU KRT8 (11758188_x_at) / Fold change /veh KRT8 (11758188_x_at) / RFU NKD1 (11759106_at) / Fold change /veh NKD1 (11759106_at) / RFU SRD5A1 (11742802_a_at) / Fold change /veh SRD5A1 (11742802_a_at) / RFU TPSAB1 /// TPSB2 (11721975_s_at) / Fold change /veh TPSAB1 /// TPSB2 (11721975_s_at) / RFU GSTM3 (11746129_a_at) / Fold change /veh GSTM3 (11746129_a_at) / RFU IL23R (11737362_x_at) / Fold change /veh IL23R (11737362_x_at) / RFU TMEM51 (11727254_a_at) / Fold change /veh TMEM51 (11727254_a_at) / RFU PIWIL2 (11732686_x_at) / Fold change /veh PIWIL2 (11732686_x_at) / RFU ORM1 (11744905_x_at) / Fold change /veh ORM1 (11744905_x_at) / RFU CCDC152 (11743942_at) / Fold change /veh CCDC152 (11743942_at) / RFU ECM1 (11717891_a_at) / Fold change /veh ECM1 (11717891_a_at) / RFU IL23R (11748794_a_at) / Fold change /veh IL23R (11748794_a_at) / RFU TNFAIP8L3 (11732012_x_at) / Fold change /veh TNFAIP8L3 (11732012_x_at) / RFU MBOAT4 (11741988_at) / Fold change /veh MBOAT4 (11741988_at) / RFU 11764193_at / Fold change /veh 11764193_at / RFU TMEM53 (11763286_at) / Fold change /veh TMEM53 (11763286_at) / RFU MAGEB2 (11727129_at) / Fold change /veh MAGEB2 (11727129_at) / RFU TMEM200A (11744735_a_at) / Fold change /veh TMEM200A (11744735_a_at) / RFU CCDC152 (11751479_a_at) / Fold change /veh CCDC152 (11751479_a_at) / RFU FAM211A (11726209_a_at) / Fold change /veh FAM211A (11726209_a_at) / RFU RGS16 (11746705_a_at) / Fold change /veh RGS16 (11746705_a_at) / RFU VCAN (11755009_s_at) / Fold change /veh VCAN (11755009_s_at) / RFU RHOB (11743442_s_at) / Fold change /veh RHOB (11743442_s_at) / RFU RGS16 (11720943_a_at) / Fold change /veh RGS16 (11720943_a_at) / RFU RGS16 (11720944_at) / Fold change /veh RGS16 (11720944_at) / RFU, VPS4B / Fold change vs veh, VPS4B / RFU, CREB1 / Fold change vs veh, CREB1 / RFU, DNAJC13 / Fold change vs veh, DNAJC13 / RFU, GNAQ / Fold change vs veh, GNAQ / RFU, CDK5R1 / Fold change vs veh, CDK5R1 / RFU, ZRANB3 / Fold change vs veh, ZRANB3 / RFU, CUL4A / Fold change vs veh, CUL4A / RFU, CCNY / Fold change vs veh, CCNY / RFU, UFL1 / Fold change vs veh, UFL1 / RFU, COG3 / Fold change vs veh, COG3 / RFU, DIAPH2 / Fold change vs veh, DIAPH2 / RFU, SKA2 / Fold change vs veh, SKA2 / RFU, AFF3 / Fold change vs veh, AFF3 / RFU, LMF1 / Fold change vs veh, LMF1 / RFU, IPO11 / Fold change vs veh, IPO11 / RFU, DFFB / Fold change vs veh, DFFB / RFU, FOXP1 / Fold change vs veh, FOXP1 / RFU, CARD8 / Fold change vs veh, CARD8 / RFU, STRN3 / Fold change vs veh, STRN3 / RFU, ADK / Fold change vs veh, ADK / RFU, RASSF2 / Fold change vs veh, RASSF2 / RFU, WIPF1 / Fold change vs veh, WIPF1 / RFU, LARP1B / Fold change vs veh, LARP1B / RFU, RASA1 / Fold change vs veh, RASA1 / RFU, RB1 / Fold change vs veh, RB1 / RFU, PPFIA1 / Fold change vs veh, PPFIA1 / RFU, MAT2A / Fold change vs veh, MAT2A / RFU, CCT5 / Fold change vs veh, CCT5 / RFU, WDR92 / Fold change vs veh, WDR92 / RFU, CUX1 / Fold change vs veh, CUX1 / RFU, TTC7A / Fold change vs veh, TTC7A / RFU, TMEM135 / Fold change vs veh, TMEM135 / RFU, DEPTOR / Fold change vs veh, DEPTOR / RFU, CPM / Fold change vs veh, CPM / RFU, DNAJB6 / Fold change vs veh, DNAJB6 / RFU, CACNA2D3 / Fold change vs veh, CACNA2D3 / RFU, DTX4 / Fold change vs veh, DTX4 / RFU, TFCP2 / Fold change vs veh, TFCP2 / RFU, GMCL1 /// GMCL1P1 / Fold change vs veh, GMCL1 /// GMCL1P1 / RFU, AEBP2 / Fold change vs veh, AEBP2 / RFU, SNHG1 /// SNORD22 /// SNORD25 /// SNORD26 /// SNORD27 /// SNORD28 /// SNORD29 /// SNORD31 / Fold change vs veh, SNHG1 /// SNORD22 /// SNORD25 /// SNORD26 /// SNORD27 /// SNORD28 /// SNORD29 /// SNORD31 / Fold change (Aza/veh), C12orf56 (ProbeSet 11735607_a_at) / Fold change (ACY-1035/veh), C12orf56 (ProbeSet 11735607_a_at) / Fold change (Aza/veh), FGFR1OP (ProbeSet 11751329_s_at) / Fold change (ACY-1035/veh), FGFR1OP (ProbeSet 11751329_s_at) / Fold change (Aza/veh), VPS36 (ProbeSet 11739960_a_at) / Fold change (ACY-1035/veh), VPS36 (ProbeSet 11739960_a_at) / RFU SYPL1 (11715823_x_at) / Fold change /veh SYPL1 (11715823_x_at) / RFU IGFBP7 (11715501_s_at) / Fold change /veh IGFBP7 (11715501_s_at) / RFU REEP3 (11722064_at) / Fold change /veh REEP3 (11722064_at) / RFU IGLL1 (11728026_x_at) / Fold change /veh IGLL1 (11728026_x_at): dose or concentration left out as unconfirmed
Settings: MV-4-11 cells, 48 hours

Nc1ncn([C@@H]2O[C@H](CO)[C@@H](O)[C@H]2O)c(=O)n1 [azacitidine]
RFU CASKIN2 (11723855_a_at): 31.47 RFU
